Source: US20260022142A1, “MACROCYCLIC IMMUNOMODULATORS” (Bristol-Myers Squibb Company, priority 2022, published 2026)
Numbered stars: 1 amine (or outer) side, 2 acyl side, 3 side chain; on linkers, the order of the positions; unused ones are H or OH. Bridge positions count the residues as written; N and C are the ends. Square brackets hold non-standard residues; d marks the D form. Peptide text beside a SMILES is read from it. * marks the point of attachment. Phe(4-COOH) = N[C@@H](Cc1ccc(C(=O)O)cc1)C(=O)O; Bip = N[C@@H](Cc1ccc(-c2ccccc2)cc1)C(=O)O; Phe(3-OMe) = COc1cccc(C[C@H](N)C(=O)O)c1; Phe(4-CN) = N#Cc1ccc(C[C@H](N)C(=O)O)cc1; Phe(3-Me) = Cc1cccc(C[C@H](N)C(=O)O)c1; γGlu = O=C(O)[C@H](CCC(=O)[*:2])N[*:1]; βAsp = O=C(O)[C@H](CC(=O)[*:2])N[*:1]; Val(3-OH) = CC(C)(O)[C@H](N)C(=O)O; Cha = N[C@@H](CC1CCCCC1)C(=O)O; Cit = NC(=O)NCCC[C@H](N)C(=O)O; Carboxymethyl = O=C(O)C*; Orn = NCCC[C@H](N)C(=O)O; Aun = NCCCCCCCCCCC(=O)O; Dab = NCC[C@H](N)C(=O)O; Dap = NC[C@H](N)C(=O)O; AEEA = NCCOCCOCC(=O)O

These compounds were tested against T1, PD-1/PD-L1 interaction (PE-labeled human PD-L1-Ig binding to Jurkat cell line over-expressing human PD-1) (Homo sapiens, UniProt Q15116) (assay: Jurkat-PD-1 Cell Binding High-Content Screening Assay (CBA)). Settings: Jurkat cell line over-expressing human PD-1; PE-labeled PD-L1-Ig 20 nM final; read-out: Jurkat hPD1-PDL1 IC50.
T1 construct: expressed in transfected cells; host or cells: Jurkat
Type: cell-based
Description: Example 2: Jurkat-PD-1 Cell Binding High-Content Screening Assay (CBA)
Phycoerythrin (PE) was covalently linked to the Ig epitope tag of human PD-L1-Ig and fluorescently-labeled PD-L1-Ig was used for binding studies with a Jurkat cell line over-expressing human PD-1 (Jurkat-PD-1). Briefly, 8×10^3 Jurkat-hPD-1 cells were seeded into 384 well plates in 20 μl of DMEM supplemented with 10% fetal calf serum. 100 nl of compound was added to cells followed by incubation at 37° C. for 2 h. Then, 5 μl of PE-labeled PD-L1-Ig (20 nM final), diluted in DMEM supplemented with 10% fetal calf serum. After 1 hour incubation, cells were fixed with 4% paraformaldehyde in dPBS containing 10 μg/ml Hoechst 33342 and then washed 3× in 100 μl dPBS. Data was collected and processed using a Cell Insight NXT High Content Imager and associated software.

T1 sequence (Q15116 25-288): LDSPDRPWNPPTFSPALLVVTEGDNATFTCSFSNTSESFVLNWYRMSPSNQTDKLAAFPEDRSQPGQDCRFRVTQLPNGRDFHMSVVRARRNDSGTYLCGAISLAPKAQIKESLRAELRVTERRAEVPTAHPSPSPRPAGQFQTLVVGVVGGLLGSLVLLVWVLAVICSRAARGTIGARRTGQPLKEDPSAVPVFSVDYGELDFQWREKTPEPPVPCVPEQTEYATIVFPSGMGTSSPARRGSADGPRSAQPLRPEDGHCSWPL

SMILES	IC50 [nM]
Cc1cccc(C[C@@H]2NC(=O)[C@H](CC(=O)O)NC(=O)[C@H](Cc3ccc(OCC(=O)O)cc3)NC(=O)[C@H](CN)NC(=O)CSC[C@@H](C(=O)N[C@@H](CCN)C(=O)NCCCCCCCCCCCCC(=O)O)NC(=O)[C@H](C(C)O)NC(=O)[C@H](C(C)C)NC(=O)[C@H](CC3CCCCC3)NC(=O)[C@H](CCN)NC(=O)[C@@H](CC(C)C)NC(=O)[C@H](CCCN)NC(=O)[C@H](CCCNC(N)=O)NC(=O)[C@H](Cc3ccc(-c4ccccc4)cc3)NC(=O)[C@H](C(C)C)NC2=O)c1 (mixture of isomers) [Compound 3126]	68.6
Cc1cccc(C[C@@H]2NC(=O)[C@H](CC(=O)O)NC(=O)[C@H](Cc3ccc(OCC(=O)O)cc3)NC(=O)[C@H](CN)NC(=O)CSC[C@@H](C(=O)N[C@@H](C)C(=O)N[C@@H](CCC(=O)O)C(=O)NCC(=O)NCCCCCCCCCCC(=O)O)NC(=O)[C@H]([C@@H](C)O)NC(=O)[C@H](C(C)C)NC(=O)[C@H](CC3CCCCC3)NC(=O)[C@H](CCN)NC(=O)[C@@H](CC(C)C)NC(=O)[C@H](CCCN)NC(=O)[C@H](CCCNC(N)=O)NC(=O)[C@H](Cc3ccc(-c4ccccc4)cc3)NC(=O)[C@H](C(C)C)NC2=O)c1 [Compound 1000] ({CH2CO}-[Dap]Y(Carboxymethyl)D[Phe(3-Me)]V[Bip][Cit][Orn][dL][Dab][Cha]VTCAEG[Aun]-OH; thioether N-14)	5.5
COc1cccc(C[C@@H]2NC(=O)[C@H](CC(=O)O)NC(=O)[C@H](Cc3ccc(OCC(=O)O)cc3)NC(=O)[C@H](CN)NC(=O)CSC[C@@H](C(=O)N[C@@H](CCN)C(=O)NCCOCCOCC(=O)NCCCCCCCCCCC(=O)O)NC(=O)[C@H](CCCN)NC(=O)[C@H](C(C)C)NC(=O)[C@H](CC3CCCCC3)NC(=O)[C@H](CCN)NC(=O)[C@@H](CC(C)C)NC(=O)[C@H](CCCN)NC(=O)[C@H](Cc3ccc(O)cc3)NC(=O)[C@H](Cc3ccc(-c4ccccc4)cc3)NC(=O)[C@H](Cc3ccc(OCC(=O)O)cc3)NC2=O)c1 [Compound 1001] ({CH2CO}-[Dap]Y(Carboxymethyl)D[Phe(3-OMe)]Y(Carboxymethyl)[Bip]Y[Orn][dL][Dab][Cha]V[Orn]C[Dab][AEEA][Aun]-OH; thioether N-14)	7.2
Cc1cccc(C[C@@H]2NC(=O)[C@H](CC(=O)O)NC(=O)[C@H](Cc3ccc(OCC(=O)O)cc3)NC(=O)[C@H](CN)NC(=O)CSC[C@@H](C(=O)N[C@@H](C)C(=O)N[C@@H](CC(=O)O)C(=O)NCC(=O)NCCCCCCCCCCC(=O)O)NC(=O)[C@H]([C@@H](C)O)NC(=O)[C@H](C(C)C)NC(=O)[C@H](CC3CCCCC3)NC(=O)[C@H](CCN)NC(=O)[C@@H](CC(C)C)NC(=O)[C@H](CCCN)NC(=O)[C@H](CCCNC(N)=O)NC(=O)[C@H](Cc3ccc(-c4ccccc4)cc3)NC(=O)[C@H](C(C)C)NC2=O)c1 [Compound 1002] ({CH2CO}-[Dap]Y(Carboxymethyl)D[Phe(3-Me)]V[Bip][Cit][Orn][dL][Dab][Cha]VTCADG[Aun]-OH; thioether N-14)	6
Cc1cccc(C[C@@H]2NC(=O)[C@H](CC(=O)O)NC(=O)[C@H](Cc3ccc(C(=O)O)cc3)NC(=O)[C@H](Cc3ccc(C#N)cc3)NC(=O)CSC[C@@H](C(=O)N[C@@H](CCN)C(=O)NCCCCCCCCCCC(=O)O)NC(=O)[C@H](CO)NC(=O)[C@H](C(C)(C)O)NC(=O)[C@H](CC3CCCCC3)NC(=O)[C@H](CCN)NC(=O)[C@@H](CC(C)C)NC(=O)[C@H](CCCN)NC(=O)[C@H](Cc3ccc(OCC(=O)O)cc3)NC(=O)[C@H](Cc3ccc(-c4ccccc4)cc3)NC(=O)[C@H](Cc3ccc(OCC(=O)O)cc3)NC2=O)c1 [Compound 1003] ({CH2CO}-[Phe(4-CN)][Phe(4-COOH)]D[Phe(3-Me)]Y(Carboxymethyl)[Bip]Y(Carboxymethyl)[Orn][dL][Dab][Cha][Val(3-OH)]SC[Dab][Aun]-OH; thioether N-14)	14.8
Cc1cccc(C[C@@H]2NC(=O)[C@H](CC(=O)O)NC(=O)[C@H](Cc3ccc(OCC(=O)O)cc3)NC(=O)[C@H](CN)NC(=O)CSC[C@@H](C(=O)N[C@@H](C)C(=O)N[C@@H](CCC(=O)O)C(=O)NCCOCCOCC(=O)NCCCCCCCCCCC(=O)O)NC(=O)[C@H]([C@@H](C)O)NC(=O)[C@H](C(C)C)NC(=O)[C@H](CC3CCCCC3)NC(=O)[C@H](CCN)NC(=O)[C@@H](CC(C)C)NC(=O)[C@H](CCCN)NC(=O)[C@H](CCCNC(N)=O)NC(=O)[C@H](Cc3ccc(-c4ccccc4)cc3)NC(=O)[C@H](C(C)C)NC2=O)c1 [Compound 1004] ({CH2CO}-[Dap]Y(Carboxymethyl)D[Phe(3-Me)]V[Bip][Cit][Orn][dL][Dab][Cha]VTCAE[AEEA][Aun]-OH; thioether N-14)	2.6
Cc1cccc(C[C@@H]2NC(=O)[C@H](CC(=O)O)NC(=O)[C@H](Cc3ccc(OCC(=O)O)cc3)NC(=O)[C@H](CN)NC(=O)CSC[C@@H](C(=O)N[C@@H](C)C(=O)N[C@@H](CCC(=O)O)C(=O)NCCCCCCCCCCC(=O)O)NC(=O)[C@H]([C@@H](C)O)NC(=O)[C@H](C(C)C)NC(=O)[C@H](CC3CCCCC3)NC(=O)[C@H](CCN)NC(=O)[C@@H](CC(C)C)NC(=O)[C@H](CCCN)NC(=O)[C@H](CCCNC(N)=O)NC(=O)[C@H](Cc3ccc(-c4ccccc4)cc3)NC(=O)[C@H](C(C)C)NC2=O)c1 [Compound 1005] ({CH2CO}-[Dap]Y(Carboxymethyl)D[Phe(3-Me)]V[Bip][Cit][Orn][dL][Dab][Cha]VTCAE[Aun]-OH; thioether N-14)	1.1
Cc1cccc(C[C@@H]2NC(=O)[C@H](CC(=O)O)NC(=O)[C@H](Cc3ccc(OCC(=O)O)cc3)NC(=O)[C@H](CN)NC(=O)CSC[C@@H](C(=O)N[C@@H](C)C(=O)N[C@@H](CC(=O)O)C(=O)NCCCCCCCCCCC(=O)O)NC(=O)[C@H]([C@@H](C)O)NC(=O)[C@H](C(C)C)NC(=O)[C@H](CC3CCCCC3)NC(=O)[C@H](CCN)NC(=O)[C@@H](CC(C)C)NC(=O)[C@H](CCCN)NC(=O)[C@H](CCCNC(N)=O)NC(=O)[C@H](Cc3ccc(-c4ccccc4)cc3)NC(=O)[C@H](C(C)C)NC2=O)c1 [Compound 1006] ({CH2CO}-[Dap]Y(Carboxymethyl)D[Phe(3-Me)]V[Bip][Cit][Orn][dL][Dab][Cha]VTCAD[Aun]-OH; thioether N-14)	9.2
Cc1cccc(C[C@@H]2NC(=O)[C@H](CC(=O)O)NC(=O)[C@H](Cc3ccc(OCC(=O)O)cc3)NC(=O)[C@H](CN)NC(=O)CSC[C@@H](C(=O)N[C@@H](C)C(=O)NCCOCCOCC(=O)N[C@@H](CCC(=O)O)C(=O)NCCCCCCCCCCC(=O)O)NC(=O)[C@H]([C@@H](C)O)NC(=O)[C@H](C(C)C)NC(=O)[C@H](CC3CCCCC3)NC(=O)[C@H](CCN)NC(=O)[C@@H](CC(C)C)NC(=O)[C@H](CCCN)NC(=O)[C@H](CCCNC(N)=O)NC(=O)[C@H](Cc3ccc(-c4ccccc4)cc3)NC(=O)[C@H](C(C)C)NC2=O)c1 [Compound 1007] ({CH2CO}-[Dap]Y(Carboxymethyl)D[Phe(3-Me)]V[Bip][Cit][Orn][dL][Dab][Cha]VTCA[AEEA]E[Aun]-OH; thioether N-14)	7.9
Cc1cccc(C[C@@H]2NC(=O)[C@H](CC(=O)O)NC(=O)[C@H](Cc3ccc(OCC(=O)O)cc3)NC(=O)[C@H](CN)NC(=O)CSC[C@@H](C(=O)N[C@@H](C)C(=O)N[C@@H](CC(=O)O)C(=O)NCCOCCOCC(=O)NCCCCCCCCCCC(=O)O)NC(=O)[C@H]([C@@H](C)O)NC(=O)[C@H](C(C)C)NC(=O)[C@H](CC3CCCCC3)NC(=O)[C@H](CCN)NC(=O)[C@@H](CC(C)C)NC(=O)[C@H](CCCN)NC(=O)[C@H](CCCNC(N)=O)NC(=O)[C@H](Cc3ccc(-c4ccccc4)cc3)NC(=O)[C@H](C(C)C)NC2=O)c1 [Compound 1008] ({CH2CO}-[Dap]Y(Carboxymethyl)D[Phe(3-Me)]V[Bip][Cit][Orn][dL][Dab][Cha]VTCAD[AEEA][Aun]-OH; thioether N-14)	10.5
Cc1cccc(C[C@@H]2NC(=O)[C@H](CC(=O)O)NC(=O)[C@H](Cc3ccc(OCC(=O)O)cc3)NC(=O)[C@H](CN)NC(=O)CSC[C@@H](C(=O)N[C@@H](C)C(=O)N[C@@H](CC(=O)NCCOCCOCC(=O)NCCCCCCCCCCC(=O)O)C(=O)O)NC(=O)[C@H]([C@@H](C)O)NC(=O)[C@H](C(C)C)NC(=O)[C@H](CC3CCCCC3)NC(=O)[C@H](CCN)NC(=O)[C@@H](CC(C)C)NC(=O)[C@H](CCCN)NC(=O)[C@H](CCCNC(N)=O)NC(=O)[C@H](Cc3ccc(-c4ccccc4)cc3)NC(=O)[C@H](C(C)C)NC2=O)c1 [Compound 1010] ({CH2CO}-[Dap]Y(Carboxymethyl)D[Phe(3-Me)]V[Bip][Cit][Orn][dL][Dab][Cha]VTCA[βAsp][AEEA][Aun]-OH; thioether N-14)	6.3
Cc1cccc(C[C@@H]2NC(=O)[C@H](CC(=O)O)NC(=O)[C@H](Cc3ccc(OCC(=O)O)cc3)NC(=O)[C@H](CN)NC(=O)CSC[C@@H](C(=O)N[C@@H](C)C(=O)N[C@@H](CCC(=O)NCC(=O)NCCCCCCCCCCC(=O)O)C(=O)O)NC(=O)[C@H]([C@@H](C)O)NC(=O)[C@H](C(C)C)NC(=O)[C@H](CC3CCCCC3)NC(=O)[C@H](CCN)NC(=O)[C@@H](CC(C)C)NC(=O)[C@H](CCCN)NC(=O)[C@H](CCCNC(N)=O)NC(=O)[C@H](Cc3ccc(-c4ccccc4)cc3)NC(=O)[C@H](C(C)C)NC2=O)c1 [Compound 1011] ({CH2CO}-[Dap]Y(Carboxymethyl)D[Phe(3-Me)]V[Bip][Cit][Orn][dL][Dab][Cha]VTCA[γGlu]G[Aun]-OH; thioether N-14)	8.8
